{"source": "patent US8338392B2", "about": "“MicroRNA modulators and method for identifying and using the same” (The Wistar Institute, priority 2008, dated 2012)", "type_in_all_cases": "cell-based, human", "key": {"[1]": {"tested_on": "miR-21", "test": "Luc-miR-21 luciferase reporter assay in HeLa cells", "conditions": "for Luciferase Assay: HeLa cells with Luc-miR-21 reporter, screen at 10 μM, 48 hours", "from_the_text": "(§1) MicroRNA miR-21 was selected as a target miRNA due to its involvement as an anti-apoptotic factor in cancer cells and its elevated levels in various cancers such as breast, ovarian, and lung cancer as well as glioblastoma (Chan, et al. (2005) Cancer Res. 65:6029). Lentiviral reporter constructs for miRNA activity were assembled by introducing the complementary sequences of mature miR-21 (5′-UAGCUUAUCAGACUGAUGUUGA-3′; SEQ ID NO:13), miR-30A (5′-CUUUCAGUCGGAUGUUUGCAGC-3′; SEQ ID NO:14) as a specificity control, and a linker sequence (a previously present multiple-cloning site with no detectable recognition by natural miRNAs) downstream of a luciferase reporter gene as a negative control (FIG. 1).\n(§2) Luc-miR-21, Luc-miR-30A, and Luc-linker (control) were, by viral infection, introduced into HeLa cells, which express high levels of miR-21, but only low levels of miR-30A (Cheng, et al. (2005) Nucl. Acids Res. 33:1290).\nTo illustrate the method of the present invention, a primary screen of >1000 compounds was conducted. The library was composed of a collection of novel compounds and the Library of Pharmacologically Active Compounds (LOPAC library, Sigma-Aldrich, St Louis, Mo.). All compounds were stored at a 10 mM concentration in DMSO to keep the DMSO concentration in the actual screen at 0.1% thereby minimizing toxicity. HeLa cells stably expressing the miR-reporter were treated with DMSO ranging from 0.1-1%. Luciferase signals were determined 48 hours after the treatment.\nHeLa cells (2500 cells) were plated in each well of 384-well plate 24 hour before the addition of compounds. Compounds at 10 μM final concentration were added to each well. Luciferase signal were determined 48 hours after compound treatment. Using this screening assay, compound 1 was identified as a miR-21 antagonist."}, "[2]": {"tested_on": "Luc-Linker control", "test": "Luc-Linker control luciferase reporter in HeLa cells", "conditions": "10 μM, relative to DMSO, listed as diazobenzene 2", "from_the_text": "as §1, §2\n(§3) It was subsequently determined whether Compound 2 was a specific inhibitor of miR-21 or whether it could interfere with the general miRNA biogenesis pathway. Thus, HeLa cells stably expressing both the miR-30 luciferase reporter construct and miR-30 were treated with Compound 2."}, "[3]": {"tested_on": "miR-30", "test": "miR-30 luciferase reporter in HeLa cells expressing miR-30", "conditions": "HeLa cells expressing miR-30 reporter and miR-30, 10 μM", "from_the_text": "as §1\nThe specificity of the reporter system was tested by assaying cells which contained both the Luc-miR-30A reporter and a construct expressing exogenous miR-30.\nas §3"}, "[4]": {"tested_on": "mature miR-21", "test": "Quantitative RT-PCR of mature miR-21", "conditions": "for mature miR-21 expression upon treatment: HCT116 colon cancer cells and A172 glioblastoma cells", "from_the_text": "(§4) UNG (Applied Biosystems). […] (Sigma). […] ID NO:18); E-cadherin: forward [NT] ID NO:19), reverse [NT] ID NO:20); Fibronectin: forward [NT] ID NO:21), reverse [NT] ID NO:22); RAP1A: forward [NT] ID NO:23), reverse [NT]"}, "[5]": {"tested_on": "mature miR-30", "test": "Quantitative RT-PCR of mature miR-30", "conditions": "MDA-MB-231, MCF-7 and A172 cell lines", "from_the_text": "as §4"}, "[6]": {"tested_on": "mature miR-93", "test": "Quantitative RT-PCR of mature miR-93", "conditions": "MDA-MB-231, MCF-7 and A172 cell lines", "from_the_text": "as §4"}, "[7]": {"tested_on": "primary miR-21 (pri-miR-21)", "test": "Quantitative RT-PCR of primary miR-21", "conditions": "for primary miR-21 expression upon treatment: HCT116 colon cancer cells and A172 glioblastoma cells", "from_the_text": "UNG (Applied Biosystems). […] (Sigma)."}, "[8]": {"tested_on": "HCT116 colon cancer cells", "test": "Cell proliferation of HCT116 cells, drug combinations", "from_the_text": "The % activity indicates % live cell activity."}, "[9]": {"conditions": "MDA-MB-231, MCF-7 and A172 cell lines"}}, "note": "“Also recorded” adds a separate entry of the source.", "data": [{"smiles": "C#CCNC(=O)c1ccc(/N=N/c2ccccc2)cc1", "note": "[Compound 2, (E)-4-(Phenyldiazenyl)-N-(prop-2-ynyl)benzamide]", "values": [{"measurement": "fold increase of the luciferase signal", "setting": "[1]; 10 μM, HeLa cells", "result": 5, "unit": "fold"}, {"measurement": "Luciferase Assay", "setting": "[1]", "result": 4.83}, {"measurement": "effect on luciferase signal, Luc-Linker control", "setting": "[2]", "result": "does not affect; also recorded: did not affect the luciferase signal"}, {"measurement": "effect on luciferase signal, miR-30 reporter", "setting": "[3]", "result": "no increase of the luciferase signal was detected"}, {"measurement": "effect on luciferase signal, miR-30 reporter", "setting": "[3]; listed as diazobenzene 2", "result": "does not affect"}, {"measurement": "effect on mature miR-21", "setting": "[4]; [9]", "result": "suppressed"}, {"measurement": "effect on mature miR-30", "setting": "[5]", "result": "no effect"}, {"measurement": "effect on mature miR-93", "setting": "[6]", "result": "no effect"}, {"measurement": "effect on primary miR-21", "setting": "[7]; [9]", "result": "suppressed"}, {"measurement": "proliferation of HCT116 cells, combination with 5-FU", "setting": "[8]; combination with 5-FU", "result": "synergistic effect; also recorded: synergistically decrease the proliferation"}, {"measurement": "proliferation of HCT116 cells, combination with Curcumin", "setting": "[8]; combination with Curcumin", "result": "synergistic effect; also recorded: synergistically decrease the proliferation"}]}, {"smiles": "C#CCNC(=O)c1ccc(NNc2ccccc2)cc1", "note": "[Compound 3]", "values": [{"measurement": "Luciferase Assay", "setting": "[1]", "result": 3.67}]}, {"smiles": "Cn1c2c(c3ccccc3c1=O)C(=O)c1cc3c(cc1-2)OCO3", "note": "[Compound 4]", "values": [{"measurement": "Luciferase Assay", "setting": "[1]", "result": 3.12}]}, {"smiles": "O=c1[nH]cc(F)c(=O)[nH]1", "note": "[Compound 5-FU, 5-fluorouracil]", "values": [{"measurement": "mature miR-21 expression upon treatment", "setting": "[4]", "result": "increased"}, {"measurement": "primary miR-21 expression upon treatment", "setting": "[7]", "result": "increased"}]}, {"smiles": "O=C1c2cc3c(cc2-c2[nH]c(=O)c4ccccc4c21)OCO3", "note": "[Compound 5]", "values": [{"measurement": "Luciferase Assay", "setting": "[1]", "result": 2.92}]}, {"smiles": "COc1ccc2c(c1[N+](=O)[O-])CCC1C2CC[C@]2(C)C(=O)CCC12", "note": "(stereo partly shown) [Compound 6]", "values": [{"measurement": "Luciferase Assay", "setting": "[1]", "result": 3.34}]}, {"smiles": "COc1ccc2c(c1N)CCC1C2CC[C@]2(C)C(=O)CCC12", "note": "(stereo partly shown) [Compound 7]", "values": [{"measurement": "Luciferase Assay", "setting": "[1]", "result": "3.04-3.87"}]}, {"smiles": "COc1cc2c(cc1N)C1CC[C@]3(C)C(=O)CCC3C1CC2", "note": "(stereo partly shown) [Compound 8]", "values": [{"measurement": "Luciferase Assay", "setting": "[1]", "result": 3.50}]}, {"smiles": "COc1cc(/C=C/C(=O)CC(=O)/C=C/c2ccc(O)c(OC)c2)ccc1O", "note": "[Curcumin, curcumin]", "values": [{"measurement": "mature miR-21 expression upon treatment", "setting": "[4]", "result": "increased"}, {"measurement": "primary miR-21 expression upon treatment", "setting": "[7]", "result": "increased"}]}, {"smiles": "C[C@]12CC[C@@H]3c4ccc(O)cc4CC[C@H]3[C@@H]1CCC2=O", "note": "[Estrone, estrone, reference compound]", "values": [{"measurement": "Luciferase Assay", "setting": "[1]", "result": 2.76}]}]}
